Laboratory results as given in patent publication US10933091B1, “Composition and method for the treatment of type I diabetes” (Vector Vitale IP LLC, priority 2019, dated 2021).

Tests used:
[1] = Intraperitoneal administration to intact rats: accumulation of metals in liver and kidney tissues; settings: day 1 and day 7 after discontinuation, in words
Experimental: The administration of these compositions was by intraperitoneal route.
Animals are placed in cages, 4 per cage, with free access to food/water. […] Administration is performed every other day, in the amount of 7 injections per animal (intraperitoneal method of drug administration). The dose of the drug injected to each animal was calculated on the basis of the ratio: 3750 μg of zinc per 1 kg of animal body weight. After the last injection, a half of the animals are maintained on hunger (for 12 hours) with free access to water. Upon expiration of this time period, the animals are taken out of the experiment. The second half of the animals continues to have free access to food/water for a further 7 days. On day 6 after the last injection, the animals are maintained on hunger (for 12 hours) with free access to water. Upon expiration of this time period, the animals are taken out of the experiment.
The total kidney, liver and muscle homogenates were prepared as follows. Organ excision and homogenization were carried out at a temperature of 1-4° C. Homogenization of tissues was carried out in 50 mM Tris-HCl buffer (pH 7.4) which contained 140 mM NaCl, 1 mM EDTA. The volume of the used buffer in ml was 5 times larger than the mass of isolated organs in grams. The isolated liver was perfused with chilled saline (0.9% NaCl) via the portal vein using a syringe. […]

[2] = tested on: peripheral serotonergic system (duodenum); assay: Indicators of the peripheral serotonergic system (duodenum); format: in vivo, rats
Source text: (§1) The tissue: buffer ratio was 1:10.
(§2) The samples were reprecipitated by centrifugation.
(§3) University. Medicine.-2000.-1, No. 494.-P. 40-43.
(§4) The supernatant was used in further studies.

[3] = tested on: tryptophan, serotonin, monoamine oxidase; assay: Serum tryptophan, serotonin and monoamine oxidase activity; format: in vivo, rats
Source text: as §2, §3

[4] = tested on: central serotonergic system (brain); assay: Indicators of the central serotonergic system (brain); format: in vivo, rats
Source text: as §1, §2, §3, §4

alkaline phosphatase = settings: serum; DIO rats (high-fat diet), week 10
Experimental: To this end, high-fat diet obesity was induced in experimental animals as described in Example 2.
Serum alkaline phosphatase activity in the animals was measured spectrophotometrically using a Microlab 300 biochemical analyzer and standard PLIVA-Lachema Diagnostika test kits (Czech Republic).
As a result of hydrolytic cleavage of p-nitrophenyl phosphate catalyzed by alkaline phosphatase, p-nitrophenol is formed, which gives an intense yellow color in alkaline medium. The optical density of samples was measured at a wavelength of 405 nm. The alkaline phosphatase activity was expressed in relative units.

[5] = Levels of divalent metal ions in muscles, kidneys and liver, diet-induced obesity study; settings: DIO rats (high-fat diet)
[6] = Serum biochemistry (albumin, triglycerides, cholesterol, free fatty acids), diet-induced obesity study; settings: DIO rats (high-fat diet), week 10
Experimental: The levels of serum albumin in the animals were determined spectrophotometrically using a Microlab 300 biochemistry analyzer and standard PLIVA-Lachema Diagnostika test kits (Czech Republic).

**Q.** Which “zinc level in kidney and liver tissues” value [1] does the source give for `CC(=O)[O-].CC(=O)[O-].[Zn+2]` [Zn acetate, Zinc acetate, reference compound] here?
**A.** significantly increased

**Q.** For `N[C@@H](CC(=O)[O-])C(=O)[O-].[Zn+2]` [^64Zne, zinc aspartate], which Serotonin ([2]; DIO rats (high-fat diet)) is on record?
**A.** 9.73 µg/g

**Q.** What about the Tryptophan ([2]; DIO rats (high-fat diet)) of the same molecule?
**A.** 89.4 µg/g

**Q.** And the Serotonin ([2]; control rats (standard diet))?
**A.** 7.41 ± 0.54 µg/g

**Q.** And the Tryptophan ([2]; control rats (standard diet))?
**A.** 154.7 ± 13.6 µg/g

**Q.** What about the Serotonin ([3]; DIO rats (high-fat diet)) of the same molecule?
**A.** 6.33 ± 0.51 µg/g

**Q.** And the Tryptophan ([3]; DIO rats (high-fat diet))?
**A.** 66.65 ± 9.62 µg/g

**Q.** And the Serotonin ([3]; control rats (standard diet))?
**A.** 10.16 ± 0.62 µg/g

**Q.** And the Tryptophan ([3]; control rats (standard diet))?
**A.** 56.12 ± 7.58 µg/g

**Q.** And the Serotonin ([4]; DIO rats (high-fat diet))?
**A.** 20.1 µg/g

**Q.** What about the Tryptophan ([4]; DIO rats (high-fat diet)) of the same molecule?
**A.** 31.56 µg/g

**Q.** What about the Serotonin ([4]; control rats (standard diet)) of the same molecule?
**A.** 25.51 ± 2.71 µg/g

**Q.** What about the Tryptophan ([4]; control rats (standard diet)) of the same molecule?
**A.** 87.71 ± 3.41 µg/g

**Q.** And the Alkaline phosphatase activity (alkaline phosphatase)?
**A.** 87.6 ± 18.7 RU

**Q.** What about the Zinc level ([5]; kidneys) of the same molecule?
**A.** 20.28 ± 1.75 μg/ tissue

**Q.** And the Zinc level ([5]; liver)?
**A.** 31.43 ± 1.78 μg/ tissue

**Q.** And the Zinc level ([5]; muscles)?
**A.** 9.10 ± 0.42 μg/ tissue

**Q.** And the “zinc level in kidney and liver tissues” value [1]?
**A.** significantly increased

**Q.** What about the Albumin levels [6] of the same molecule?
**A.** 166.2 ± 15.8 RU

**Q.** What about the Cholesterol [6] of the same molecule?
**A.** 2.83 ± 0.23 mmol/L

**Q.** What about the Free fatty acids [6] of the same molecule?
**A.** 31.62 ± 7.92 mg/L

**Q.** What about the Triglycerides [6] of the same molecule?
**A.** 2.79 ± 0.30 g/L
